A short description of this data set: Solubility of 1,1-GPM and 1,6-GPS in water / aqueous suspension. The class given is physicochemical. As to conditions: seed crystals mixed into concentrated aqueous solution of hydrogenated isomaltulose, about 50-65° C. As to the method: Since the solubility equilibrium is temperature-dependent, the concentration ratio of the two components can advantageously be preset. After the solubility equilibrium is adjusted, the 1,1-GPM and 1,6-GPS concentration in the products can be controlled by setting the rate for the temperature change.
In another preferred embodiment of the invention, a suspension which is formed by the addition of, for example, crystalline hydrogenated isomaltulose in water, is heated to, for example, 85° C. to completely dissolve the solute, whereafter the cooling step to crystallize the solution is combined with a seeding step. The seeding step, however, is not essential. Advantageously, powdered hydrogenated isomaltulose in crystalline form or in the form of a suspension can be used. Most advantageously, the suspension is formed in water or in an organic solvent, such as isopropanol, and a food-compatible dispersing agent acting as a solvent can be added, if necessary. […]
The two constituents of hydrogenated isomaltulose, i.e. 1,1-GPM and 1,6-GPS, have a different solubility in aqueous solutions (FIG. 4). […] The 1,1-GPM component, which crystallizes more readily, is concentrated in the solid fraction of the suspension, whereas the 1,6-GPS component, which crystallizes less readily, goes preferentially into solution. […]

On to `OC[C@H](O)[C@@H](O)[C@H](O)[C@H](O)CO[C@H]1O[C@H](CO)[C@@H](O)[C@H](O)[C@H]1O` [1,6-GPS, 6-0-α-D-Glucopyranosyl-D-sorbite], for which the “solubility (in words)” value was “readily soluble”.
On to `OC[C@@H](O)[C@@H](O)[C@H](O)[C@H](O)CO[C@H]1O[C@H](CO)[C@@H](O)[C@H](O)[C@H]1O` [1,1-GPM, 1-0-α-D-Glucopyranosyl-D-mannite], for which the “solubility (in words)” value is listed as “only slightly soluble”.

(Values after patent publication US6414138B1, “Process for producing mixtures rich in 1,6-GPS or 1,1-GPM” (Sudzucker Aktiengesellschaft, priority 1997, dated 2002).)
